Test results: the supplement of paper PMC10307832

Tests used:
Assay in all cases: relative viability (nuclei count vs DMSO), 5 days (fraction); higher = more cells survive
[1] = compound: C1=CC=C(C(=C1)C2=CC=C(C=C2)C3=CSC4=C3C(=C(C(=O)N4)C#N)O)O + CC(C)C[C@H](NC(=O)[C@H](Cc1ccccc1)NC(=O)c1cnccn1)B(O)O [Bortezomib] (partner 0.002 µM)
Method in brief: (§1)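 Dosing by pin tool came one day after lung cancer cell lines were seeded in 1536-well plates, using either one drug or a fixed anchor-drug dose plus five library-drug doses (not always all listed) in √10 steps. After 5 days, nuclei were counted on 4× images. Relative viability is treated-well nuclei count divided by vehicle-well nuclei count, and values are medians of duplicate plates.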

[2] = compound: C1=CC=C(C(=C1)C2=CC=C(C=C2)C3=CSC4=C3C(=C(C(=O)N4)C#N)O)O + CS(=O)(=O)N1CCN(Cc2cc3nc(-c4cccc5[nH]ncc45)nc(N4CCOCC4)c3s2)CC1 [Pictilisib] (partner 1 µM)
Method in brief: as §1

TGX 221 + Phenformin = compound: CC1=CN2C(=O)C=C(N=C2C(=C1)C(C)NC3=CC=CC=C3)N4CCOCC4 [TGX 221] + N=C(N)NC(=N)NCCc1ccccc1 [Phenformin] (partner 250 µM)
Method in brief: as §1

TGX 221 + Decitabine = compound: CC1=CN2C(=O)C=C(N=C2C(=C1)C(C)NC3=CC=CC=C3)N4CCOCC4 [TGX 221] + Nc1ncn([C@H]2C[C@H](O)[C@@H](CO)O2)c(=O)n1 [Decitabine] (partner 2 µM)
Method in brief: as §1

Cell Line	relative viability ([1]; first compound 0.08 µM)	relative viability ([1]; first compound 0.253 µM)	relative viability ([1]; first compound 0.8 µM)	relative viability ([1]; first compound 2.53 µM)	relative viability ([1]; first compound 8 µM)	relative viability ([2]; first compound 0.08 µM)	relative viability ([2]; first compound 0.253 µM)	relative viability ([2]; first compound 0.8 µM)	relative viability ([2]; first compound 2.53 µM)	relative viability ([2]; first compound 8 µM)	relative viability (TGX 221 + Phenformin; first compound 0.08 µM)	relative viability (TGX 221 + Phenformin; first compound 0.253 µM)	relative viability (TGX 221 + Phenformin; first compound 0.8 µM)	relative viability (TGX 221 + Phenformin; first compound 2.53 µM)	relative viability (TGX 221 + Phenformin; first compound 8 µM)	relative viability (TGX 221 + Decitabine; first compound 0.08 µM)	relative viability (TGX 221 + Decitabine; first compound 0.253 µM)	relative viability (TGX 221 + Decitabine; first compound 0.8 µM)	relative viability (TGX 221 + Decitabine; first compound 2.53 µM)	relative viability (TGX 221 + Decitabine; first compound 8 µM)
NCI-H3122	1.02	1.06	1.06	0.993	1.11	0.6	0.666	0.676	0.682	0.662	0.366	0.386	0.396	0.363	0.366	0.405	0.33	0.422	0.378	0.548
HCC-15	0.816	1.14	1.02	1.16	1.14	0.777	0.767	0.734	0.74	0.777	0.482	0.471	0.483	0.451	0.497	0.699	0.648	0.636	0.591	0.709
NCI-H2009	1.07	1.05	0.827	0.967	0.832	0.893	0.829	0.771	0.84	0.787	0.476	0.506	0.487	0.492	0.407	0.384	0.339	0.352	0.471	0.327
NCI-H23	0.884	1.11	1.19	1.07	0.558	0.439	0.462	0.563	0.458	0.396	0.814	0.699	0.811	0.836	0.773	0.35	0.329	0.271	0.33	0.322
NCI-H1623											0.543	0.602	0.62	0.566	0.555					
NCI-H1734	0.852	0.787	1.04	0.924	0.545	0.46	0.485	0.444	0.477	0.493	0.379	0.362	0.395	0.413	0.406	0.508	0.527	0.492	0.518	0.431
NCI-H2170						0.337	0.304	0.273	0.3	0.358	0.421	0.413	0.464	0.431	0.362	0.403	0.464	0.441	0.438	0.495
NCI-H2342											0.445	0.57	0.583	0.559	0.601	0.693	0.638	0.725	0.68	0.773
HCC-366	1.04	1.14	1.34	0.682	0.642	0.196	0.154	0.0996	0.174	0.164	0.617	0.575	0.642	0.572	0.613	0.333	0.305	0.345	0.344	0.365
HARA			1.25	1.03	1.13		0.668	0.449	0.392	0.442	0.563	0.422	0.426	0.424	0.543	0.604	0.488	0.529	0.504	0.433
